Data: US6184254A, “Methods of identifying modulators of perivascular sensory nerve Ca2+ receptors” (priority 1998, dated 2001)
Entries after “also recorded” stand apart in the source; their conditions may differ.

Tests used:
[1] = system: Ca^2+-induced relaxation of mesenteric resistance arteries; experiment: Inhibition of Ca2+-induced relaxation of mesenteric resistance arteries by antagonists or denervation; set-up: species or system rat
[2] = system: CGRP nerve fiber density of mesenteric resistance arteries; experiment: CGRP nerve staining/density after capsaicin-induced sensory denervation; format: in vivo, rat
Description: (§1) Pregnant rats are received at 15 days gestation and pups are delivered in a vivarium. On the first and second days of life, each pup is lightly anesthetized with halothane and given s.c. injection of capsaicin (50 mg/kg) or vehicle. The rats are then kept until 7-9 weeks of age at which time they are euthanized and tissue isolated. Sub-acute regional nerve destruction is performed. […] The would is closed and the rats are allowed to recover for three days following which branches leading from the treated vessel segments are harvested for study. For each procedure, two methods are used to verify denervation of the arteries. One is a functional assay in which arteries isolated from sham or denervated rats are electrically stimulated under conditions that selectively activate perivascular sensory dilator nerves; the second is an immunocytochemical approach.
At 8 weeks of age the rats were killed and whole mount preparations of mesenteric resistance arteries were prepared, stained with polyclonal anti-calcitonin gene related peptide (CGRP), which is the primary sensory nerve transmitter, and quantified using stereomorphologic methods (Schmidt-Schoenbein et al., 1977).

[3] = system: perivascular CaR; experiment: Perivascular CaR expression after capsaicin-induced denervation; format: in vivo, rat; settings: KK3 antiserum
Description: as §1, with “One is a functional assay in which arteries isolated from sham or denervated rats are electrically stimulated under conditions that selectively activate perivascular sensory dilator nerves; the second is an immunocytochemical approach.” left out
The effect of sensory denervation on perivascular nerve CaR expression is assessed using western blot analysis. […] The membranes are then stained with monoclonal anti-parathyroid CaR (1:7500) and anti-smooth muscle α-actin, then visualized using the enhanced chemiluminescence, and quantified using laser densitometry. The relative expression of CaR in each sample is then assessed as the ratio of the density of CaR staining; α-actin staining. […]
The results have been presented (Mupanomunda et al., 1997). Additional studies quantify the effect of capsaicin-induced denervation on CaR content using western blot analysis.

[4] = system: neurogenic inflammation; settings: denervation and desensitization by treatment with capsaicin; cited from earlier work

For `COc1cc(CNC(=O)CCCC/C=C/C(C)C)ccc1O` [capsaicin], the “effect on Ca2+-induced relaxation” value ([1]; 20 minutes pre-treatment, 10 μM capsaicin) was “inhibited/reversed”, the “effect on Ca2+-induced relaxation” value ([1]; chronic capsaicin-induced sensory denervation) was “attenuates; also recorded: significantly attenuated” and the “effect on staining for CGRP” value ([2]; capsaicin denervation) was “significantly decreases”. The “reduction in CGRP nerve fiber density” value ([2]; neonatal capsaicin (50 mg/kg s.c.), 8 weeks of age) was 40%, the “effect on staining for perivascular CaR” value [3] was “significantly decreases” and the “effect of treatment on neurogenic inflammation” value [4] was “prevented”.
